Tested on: 361931-004-R-J1-PDC multicell spheroid viability
Experiment: Anticancer human tumor 361931-004-R-J1-PDC patient-derived colon adenocarcinoma cell line growth inhibition [PI3K]
Conditions: for IC50: curve of first compound; for viability, T/C: stronger effect = lower value
Procedure, shortened: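 Stroma-containing spheroids: tumor line, pooled-donor HUVEC, hMSC. Treatments: targeted agents with PI3K inhibitors. Dosing: clinically relevant, half-log spacing, 10 microM ceiling without known Cmax. Read-out: cell viability.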

[1] = second compound 0.00316 µM, first compound 0.0316 µM
[2] = second compound 0.00316 µM, first compound 0.1 µM
[3] = second compound 0.00316 µM, first compound 0.316 µM
[4] = second compound 0.00316 µM, first compound 1 µM
[5] = second compound 0.01 µM, first compound 0.0316 µM
[6] = second compound 0.01 µM, first compound 0.1 µM
[7] = second compound 0.01 µM, first compound 0.316 µM
[8] = second compound 0.01 µM, first compound 1 µM
[9] = second compound 0.0316 µM, first compound 0.0316 µM
[10] = second compound 0.0316 µM, first compound 0.1 µM
[11] = second compound 0.0316 µM, first compound 0.316 µM
[12] = second compound 0.0316 µM, first compound 1 µM
[13] = second compound 0.1 µM, first compound 0.0316 µM
[14] = second compound 0.1 µM, first compound 0.1 µM
[15] = second compound 0.1 µM, first compound 0.316 µM
[16] = second compound 0.1 µM, first compound 1 µM
[17] = second compound 0.316 µM, first compound 0.0316 µM
[18] = second compound 0.316 µM, first compound 0.1 µM
[19] = second compound 0.316 µM, first compound 0.316 µM
[20] = second compound 0.316 µM, first compound 1 µM
[21] = second compound 1 µM, first compound 0.0316 µM
[22] = second compound 1 µM, first compound 0.1 µM
[23] = second compound 1 µM, first compound 0.316 µM
[24] = second compound 1 µM, first compound 1 µM
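Further: spheroids exposed to agents for seven days before readout.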

CC(C)NCC(C(=O)N1CCN(c2ncnc3c2C(C)CC3O)CC1)c1ccc(Cl)cc1 (centres undefined) + COc1c(OCCCN2CCOCC2)ccc2c3n(c(=NC(=O)c4cnc(N)nc4)nc12)CCN3 was tested, and the IC50 (second compound 0.00316 µM) was 3.3 µM, the IC50 (second compound 0.01 µM) was 2.88 µM and the IC50 (second compound 0.0316 µM) was 2.37 µM. For the same molecule, the IC50 (second compound 0.1 µM) was 1.68 µM, the IC50 (second compound 0.316 µM) was 0.161 µM and the IC50 (second compound 1 µM) was < 0.0316 µM. It also gave a viability, T/C [1] of 102%, a viability, T/C [2] of 97.8% and a viability, T/C [3] of 95.2%. The viability, T/C [4] was 86.9%, the viability, T/C (second compound 0.00316 µM, first compound 3.16 µM) was 50.9% and the viability, T/C (second compound 0.00316 µM, first compound 10 µM) was 19.5%. For the same molecule, the viability, T/C [5] was 99%, the viability, T/C [6] was 100% and the viability, T/C [7] was 90.9%. The viability, T/C [8] was 78.7%, the viability, T/C (second compound 0.01 µM, first compound 3.16 µM) was 46.9% and the viability, T/C (second compound 0.01 µM, first compound 10 µM) was 26.6%. It also gave a viability, T/C [9] of 95%, a viability, T/C [10] of 89.8% and a viability, T/C [11] of 94.2%. For the same molecule, the viability, T/C [12] was 70.6%, the viability, T/C (second compound 0.0316 µM, first compound 3.16 µM) was 43.6% and the viability, T/C (second compound 0.0316 µM, first compound 10 µM) was 25.7%. For the same molecule, the viability, T/C [13] was 89.9%, the viability, T/C [14] was 76.9% and the viability, T/C [15] was 71%. For the same molecule, the viability, T/C [16] was 60.5%, the viability, T/C (second compound 0.1 µM, first compound 3.16 µM) was 39% and the viability, T/C (second compound 0.1 µM, first compound 10 µM) was 21.9%. It also gave a viability, T/C [17] of 58%, a viability, T/C [18] of 52.3% and a viability, T/C [19] of 47.4%. The viability, T/C [20] was 36.8%, the viability, T/C (second compound 0.316 µM, first compound 3.16 µM) was 34.5% and the viability, T/C (second compound 0.316 µM, first compound 10 µM) was 21.3%. It also gave a viability, T/C [21] of 26%, a viability, T/C [22] of 21.8% and a viability, T/C [23] of 20.8%. The viability, T/C [24] was 20.4%, the viability, T/C (second compound 1 µM, first compound 3.16 µM) was 17.6% and the viability, T/C (second compound 1 µM, first compound 10 µM) was 11.6%.

CCN1CCN(Cc2ccc(Nc3ncc(F)c(-c4cc(F)c5nc(C)n(C(C)C)c5c4)n3)nc2)CC1 + COc1c(OCCCN2CCOCC2)ccc2c3n(c(=NC(=O)c4cnc(N)nc4)nc12)CCN3 was tested, and the IC50 (second compound 0.00316 µM) was > 1 µM, the IC50 (second compound 0.01 µM) was > 1 µM and the IC50 (second compound 0.0316 µM) was 0.864 µM. The IC50 (second compound 0.1 µM) was 0.223 µM, the IC50 (second compound 0.316 µM) was < 0.00316 µM and the IC50 (second compound 1 µM) was < 0.00316 µM. It also gave a viability, T/C (second compound 0.00316 µM, first compound 0.00316 µM) of 92.3%, a viability, T/C (second compound 0.00316 µM, first compound 0.01 µM) of 101% and a viability, T/C [1] of 103%. The viability, T/C [2] was 103%, the viability, T/C [3] was 94.6% and the viability, T/C [4] was 87.6%. The viability, T/C (second compound 0.01 µM, first compound 0.00316 µM) was 100%, the viability, T/C (second compound 0.01 µM, first compound 0.01 µM) was 95.1% and the viability, T/C [5] was 94.4%. For the same molecule, the viability, T/C [6] was 85%, the viability, T/C [7] was 77.2% and the viability, T/C [8] was 64.5%. The viability, T/C (second compound 0.0316 µM, first compound 0.00316 µM) was 86.7%, the viability, T/C (second compound 0.0316 µM, first compound 0.01 µM) was 91.3% and the viability, T/C [9] was 80.7%. The viability, T/C [10] was 73.5%, the viability, T/C [11] was 62.3% and the viability, T/C [12] was 48.1%. For the same molecule, the viability, T/C (second compound 0.1 µM, first compound 0.00316 µM) was 80.8%, the viability, T/C (second compound 0.1 µM, first compound 0.01 µM) was 74.3% and the viability, T/C [13] was 60.3%. For the same molecule, the viability, T/C [14] was 54.3%, the viability, T/C [15] was 51.2% and the viability, T/C [16] was 39.9%. The viability, T/C (second compound 0.316 µM, first compound 0.00316 µM) was 50%, the viability, T/C (second compound 0.316 µM, first compound 0.01 µM) was 44.7% and the viability, T/C [17] was 43.2%. For the same molecule, the viability, T/C [18] was 39.7%, the viability, T/C [19] was 39% and the viability, T/C [20] was 39.9%. It also gave a viability, T/C (second compound 1 µM, first compound 0.00316 µM) of 22.7%, a viability, T/C (second compound 1 µM, first compound 0.01 µM) of 21.8% and a viability, T/C [21] of 18.7%. The viability, T/C [22] was 22.2%, the viability, T/C [23] was 30.3% and the viability, T/C [24] was 32.1%.

Source: PubChem BioAssay AID1963979 (Molecular Pharmacology Branch, DTP, NCI, 2024)
